According to ChEMBL document CHEMBL5360530, “Structure activity relationship (SAR) and anticancer activity of pyrrolidine derivatives: Recent developments and future prospects (A review)” (Eur J Med Chem, 2023):

Tests used:
[1] = Cytotoxicity against human Chang liver cells assessed as cell growth inhibition measured after 24 hrs by DAPI and propidium iodide staining based assay; assay type: toxicity
M-HeLa = assay: Anticancer activity against human HelaM cells assessed as cell growth inhibition measured after 24 hrs by DAPI and propidium iodide staining based assay; assay type: functional
FaDu = assay: Anticancer activity against human FaDu cells assessed as cell growth inhibition; assay type: functional, cell-based
MCF7 = assay: Anticancer activity against human MCF7 cells assessed as cell growth inhibition measured after 48 hrs by MTT assay; assay type: functional, cell-based; details: MCF7, 48 h
HCT-116 = assay: Anticancer activity against human HCT-116 cells assessed as cell growth inhibition measured after 48 hrs by MTT assay; assay type: functional, cell-based; details: HCT-116, 48 h

| Compound | IC50 (FaDu) | other results |
| --- | --- | --- |
| Oc1ccc2c(c1)OCO2 |  | IC50 at 24 h [1]: > 100 µM; IC50 (M-HeLa): 14.7 µM |
| COc1ccc(-c2c(O)c3ccccc3oc2=O)cc1 |  | IC50 at 24 h [1]: > 100 µM; IC50 (M-HeLa): ≥ 14.7 µM |
| CCCCCCc1c(O)c2ccccc2oc1=O |  | IC50 at 24 h [1]: > 100 µM; IC50 (M-HeLa): ≥ 14.7 µM |
| CCCCCCc1c(O)cc(C)oc1=O |  | IC50 at 24 h [1]: > 100 µM; IC50 (M-HeLa): ≥ 14.7 µM |
| O=C1Nc2ccccc2[C@@]12N[C@H](Cc1c[nH]c3ccccc13)[C@@H]([N+](=O)[O-])[C@@H]2c1ccccc1 | 30 µM |  |
| O=C1Nc2ccc(OC(F)(F)F)cc2[C@@]12N[C@H](Cc1c[nH]c3ccccc13)[C@@H]([N+](=O)[O-])[C@@H]2c1ccccc1 | ≥ 30 µM |  |
| O=C1Nc2ccccc2[C@@]12N[C@H](Cc1c[nH]c3ccccc13)[C@@H]([N+](=O)[O-])[C@@H]2c1ccc(Br)cc1 | 39.7 µM |  |
| O=C1Nc2ccccc2[C@@]12N[C@H](Cc1c[nH]cn1)[C@@H]([N+](=O)[O-])[C@@H]2c1cccc([N+](=O)[O-])c1 | ≥ 30 µM |  |
| O=C1Nc2ccc(OC(F)(F)F)cc2[C@@]12N[C@H](Cc1c[nH]cn1)[C@@H]([N+](=O)[O-])[C@@H]2c1ccc(Cl)cc1 | ≥ 30 µM |  |
| Cc1ccc([C@H]2[C@H]([N+](=O)[O-])[C@@H](Cc3c[nH]cn3)N[C@]23C(=O)Nc2ccc(OC(F)(F)F)cc23)cc1 | ≥ 30 µM |  |
| Cc1ccc([C@H]2[C@H]([N+](=O)[O-])[C@@H](Cc3c[nH]cn3)N[C@]23C(=O)Nc2ccccc23)cc1 | ≥ 30 µM |  |
| O=C1Nc2ccc(OC(F)(F)F)cc2[C@@]12N[C@H](Cc1c[nH]cn1)[C@@H]([N+](=O)[O-])[C@@H]2c1ccc(Br)cc1 | ≥ 30 µM |  |
| Cc1ccc([C@H]2[C@H]([N+](=O)[O-])[C@@H](Cc3c[nH]c4ccccc34)N[C@]23C(=O)Nc2ccccc23)cc1 | ≥ 30 µM |  |
| O=C1Nc2ccccc2[C@@]12N[C@H](Cc1c[nH]c3ccccc13)[C@@H]([N+](=O)[O-])[C@@H]2c1ccccc1Cl | ≥ 30 µM |  |
| O=C1Nc2ccc(OC(F)(F)F)cc2[C@@]12N[C@H](Cc1c[nH]cn1)[C@@H]([N+](=O)[O-])[C@@H]2c1cccc([N+](=O)[O-])c1 | ≥ 30 µM |  |
| O=C1Nc2ccccc2[C@@]12N[C@H](Cc1c[nH]cn1)[C@@H]([N+](=O)[O-])[C@@H]2c1ccc(Br)cc1 | 40.1 µM |  |
| COc1ccc([C@H]2[C@H]([N+](=O)[O-])[C@@H](Cc3c[nH]cn3)N[C@]23C(=O)Nc2ccccc23)cc1 | ≥ 30 µM |  |

| Compound | IC50 (FaDu) | other results |
| --- | --- | --- |
| COc1ccc([C@H]2[C@H]([N+](=O)[O-])[C@@H](Cc3c[nH]cn3)N[C@]23C(=O)Nc2ccc(OC(F)(F)F)cc23)cc1 | ≥ 30 µM |  |
| COc1ccc([C@H]2[C@H]([N+](=O)[O-])[C@@H](Cc3c[nH]c4ccccc34)N[C@]23C(=O)Nc2ccccc23)cc1 | ≥ 30 µM |  |
| O=C1Nc2ccccc2[C@@]12N[C@H](Cc1c[nH]c3ccccc13)[C@@H]([N+](=O)[O-])[C@@H]2c1cccc([N+](=O)[O-])c1 | ≥ 30 µM |  |
| O=C1Nc2ccc(OC(F)(F)F)cc2[C@@]12N[C@H](Cc1c[nH]cn1)[C@@H]([N+](=O)[O-])[C@@H]2c1ccccc1 | ≥ 30 µM |  |
| O=C1Nc2ccccc2[C@@]12N[C@H](Cc1c[nH]cn1)[C@@H]([N+](=O)[O-])[C@@H]2c1ccccc1Cl | ≥ 30 µM |  |
| Cc1ccc([C@H]2[C@H]([N+](=O)[O-])[C@@H](Cc3c[nH]c4ccccc34)N[C@]23C(=O)Nc2ccc(OC(F)(F)F)cc23)cc1 | ≥ 30 µM |  |
| O=C1Nc2ccc(OC(F)(F)F)cc2[C@@]12N[C@H](Cc1c[nH]cn1)[C@@H]([N+](=O)[O-])[C@@H]2c1ccccc1Cl | ≥ 30 µM |  |
| O=C1Nc2ccccc2[C@@]12N[C@H](Cc1c[nH]c3ccccc13)[C@@H]([N+](=O)[O-])[C@@H]2c1ccc(Cl)cc1 | ≥ 30 µM |  |
| COc1ccc([C@H]2[C@H]([N+](=O)[O-])[C@@H](Cc3c[nH]c4ccccc34)N[C@]23C(=O)Nc2ccc(OC(F)(F)F)cc23)cc1 | ≥ 30 µM |  |
| O=C1Nc2ccccc2[C@@]12N[C@H](Cc1c[nH]cn1)[C@@H]([N+](=O)[O-])[C@@H]2c1ccc(Cl)cc1 | ≥ 30 µM |  |
| O=C1Nc2ccccc2[C@@]12N[C@H](Cc1c[nH]cn1)[C@@H]([N+](=O)[O-])[C@@H]2c1ccccc1 | 43 µM |  |
| O=C1Nc2ccc(OC(F)(F)F)cc2[C@@]12N[C@H](Cc1c[nH]c3ccccc13)[C@@H]([N+](=O)[O-])[C@@H]2c1cccc([N+](=O)[O-])c1 | ≥ 30 µM |  |
| O=C1Nc2ccc(OC(F)(F)F)cc2[C@@]12N[C@H](Cc1c[nH]c3ccccc13)[C@@H]([N+](=O)[O-])[C@@H]2c1ccccc1Cl | ≥ 30 µM |  |
| O=C1Nc2ccc(OC(F)(F)F)cc2[C@@]12N[C@H](Cc1c[nH]c3ccccc13)[C@@H]([N+](=O)[O-])[C@@H]2c1ccc(Br)cc1 | ≥ 30 µM |  |
| O=[N+]([O-])c1c(Cl)cc2c(no[n+]2[O-])c1Nc1ccc(-c2ccc(Br)cc2)c(O)c1 |  | IC50 at 24 h [1]: > 100 µM; IC50 (M-HeLa): ≥ 14.7 µM |
| O=C(/C=C/c1ccc(Br)cc1)[C@H]1[C@H](c2ccc(Br)cc2)C2CSCN2C12C(=O)Nc1c(Br)cc(Br)cc12 (stereo partly specified) |  | IC50 (MCF7): 2.5 µM; IC50 (HCT-116): 2.2 µM |
| Oc1cc2c(cc1-c1ccccc1)OCO2 |  | IC50 at 24 h [1]: > 100 µM; IC50 (M-HeLa): 14.7 µM |
